Experiments:
hGnRH-Receptor = target: T1, hGnRH-Receptor (Homo sapiens, UniProt P30968); test: GnRH receptor assay: competition binding with 125I-labeled buserelin on cell membranes; conditions: competition with 125I-buserelin
T1 construct: expressed in transfected cells; host or cells: CHO-3 cells (Schmid et al., J. Biol. Chem. 275 (2000), 9193-9200), membrane preparation
T1 sequence (P30968 1-328): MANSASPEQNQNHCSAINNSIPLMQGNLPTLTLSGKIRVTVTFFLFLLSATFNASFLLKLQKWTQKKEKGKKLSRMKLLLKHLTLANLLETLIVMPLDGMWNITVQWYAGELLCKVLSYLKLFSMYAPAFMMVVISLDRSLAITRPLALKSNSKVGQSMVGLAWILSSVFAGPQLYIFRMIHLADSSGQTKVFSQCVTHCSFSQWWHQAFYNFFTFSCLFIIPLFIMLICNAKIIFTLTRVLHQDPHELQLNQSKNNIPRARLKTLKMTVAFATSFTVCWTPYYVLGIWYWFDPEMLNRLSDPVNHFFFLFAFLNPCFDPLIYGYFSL
Experimental: Buserelin is ordered from Welding (Frankfurt/Main, Germany). The compound is labeled with ^125I by use of the chloramine T-method and Na^125I (4000 Ci/mmol; Amersham-Buchler, Brunswick, Germany). The labeled substance is purified by reverse phase HPLC on a Spherisorb ODS II column (250×4 mm, particle size 3 μm) by elution with 50% acetonitrile/0.15% trifluoroacetic acid at a flow rate of 0.5 ml/minute. The specific activity is 2000 Ci/mmol.
Alpha T3-1 cells (Bilezikjian et al., Mol. Endocrinol 5 (1991), 347–355) are cultivated in DMEM medium (Gibco-BRL, Eggenstein-Leopoldshafen, Germany) with penicillin (100 I.U./ml), streptomycin (0.1 mg/ml) and glutamine (0.01 mol/l) and 10% fetal calf serum (FCS; PAA Laboratories, Coelbe, Germany) on plastic tissue culture plates (Nunc, 245×245×20 mm). CHO-3 cells (Schmid et al., J. Biol. Chem. 275 (2000), 9193–9200) are cultivated under identical conditions, apart from the fact that Ham's F12 medium (Gibco-BRL) is used.
Ten confluent cell culture plates are flushed twice with 50 ml of phosphate-buffered salt solution (PBS). The cells are harvested by scraping them off with a rubber scraper in 5 ml of PBS and sedimented by centrifuging in a laboratory centrifuge (Heraeus) at 800 rpm for 10 minutes. The cell pellet is resuspended in 5 ml of 0.25 mol/l of saccharose/0.01 mol/l of triethanolamine, pH 7.4. The cells are lysed by three cycles of freezing in dry ice/ethanol bath and thawing at room temperature. The lysate is centrifuged at 900 rpm for 10 minutes, and the sediment is discarded. The supernatant is centrifuged at 18,000 rpm in a Sorvall SS34 rotor for 30 minutes. The pellet (cell membranes) is suspended by Potters in 5 ml of assay buffer (0.25 mol/l of saccharose, 0.01 mol/l of triethanolamine, pH 7.5, 1 mg/ml of ovalbumin) and stored in 200 μl of aliquots at −20° C. The determination of protein is carried out according to the Bradford method (Anal. Biochem. 72 (1976), 248–254).
Binding studies for competition curves are performed as triplicates. A test sample contains 60 μl of cell membrane suspension (10 μg of protein for αT3-1 cells or 40 μg of protein for CHO3 cells), 20 μl of ^125I-labeled buserelin (100,000 Ipm per sample for competition curves and between 1,500 and 200,000 Ipm for saturation experiments) and 20 μl of test buffer or test compound solution. The test compounds are dissolved in distilled water or 50% ethanol. Serial dilutions (5×10^−6 mol/l to […]) are produced in test buffer. The unspecific binding is determined in the presence of excess unlabeled buserelin (10^−6 mol/1). The test samples are incubated for 30 minutes at room temperature. Bonded and free ligands are separated by filtration (Whatman GF/C-filter, 2.5 cm diameter) with use of an Amicon 10x collecting device and washed twice with 5 ml of 0.02 mol/l of Tris/HCl, pH 7.4. The filters are moistened with 0.3% polyethylenimine (Serva; Heidelberg, Germany) for 30 minutes to reduce the unspecific binding. The radioactivity that was held up by the filter is determined in a 5-channel gamma-counter (Wallac-LKB 1470 Wizard).
In the table below, the IC50 values that are obtained for the preferred compounds, as defined above, are indicated.

GnRH receptor [1] = target: T2, GnRH receptor (Homo sapiens, UniProt P30968); test: Ca2+ release, human; type: cell-based; conditions: read-out: Ca^2+ Release Human IC50
T2 sequence (P30968 1-328): T1 sequence (P30968 1-328)

GnRH receptor [2] = target: T2, GnRH receptor; test: Receptor binding assay with 125I-triptorelin on transfected LTK cells; conditions: competition with 125I-triptorelin, whole LTK cells, 60 minutes at 37° C.
Experimental: ^125I-Triptorelin [^125I-(D)-Trp6-GnRH] is ordered from the Biotrend Company (Cologne, Germany). The specific activity in each case is 2.13 Ci/mmol. All other chemicals are ordered from commercial sources at the highest available purity.
Transfixed LTK′ cells (ATCC No. CCL-11.3) are cultivated in DMEM medium (Invitrogen Life Technologies, Germany) with penicillin (100 I.U./ml), streptomycin (0.1 mg/ml) and glutamine (0.01 mol/l) and 10% fetal calf serum (FCS; Invitrogen Life Technologies, Germany) on plastic tissue culture plates (Nunc, Germany, 245×245×20 nun).
80% confluent cell culture plates are washed twice with 50 ml of phosphate-buffered salt solution (PBS) and dissolved below with 0.01 M EDTA solution. The cells are pelletized by centrifuging at 200×g for 5 minutes in a laboratory centrifuge (Kendro, Germany). The cell pellet is resuspended in 3 ml of binding medium (DMEM; 10 mmol of Hepes; 0.5% BSA; 0.1% NaN3; 1 g/l of bacitracin (freshly added, stock 100×); 0.1 g/l of SBTI (freshly added, stock 1000×), and the cell count is determined by means of trypan blue staining in a Neubauer counting chamber. The cell suspension is set with binding medium to a concentration of 5×10^5 Z/0.05 ml.
Binding tests for competition curves are performed as duplicates. The test substances are used as 10 mmol DMSO solutions. They are diluted with binding medium to 4× the final concentration used. 25 μl of the substance dilution is mixed with 25 μl of tracer solution (^125I-triptorelin). The concentration of tracer is set to about 50,000 cpm (measured in Cobra II, γ-counter, PE Liefe Science, Germany) in the final reaction volume of 100 μl.
200 μl of a silicone/paraffin oil mixture (84%:16%) is introduced into 650 μl pointed-bottom tubes (Roth, Germany). 50 μl of the cell suspension is pipetted thereto and subsequently 50 μl of the test substance/tracer mixture. The tubes are sealed and incubated for 60 minutes at 37° C. in an incubator that rotates via the top. After incubation, the samples are centrifuged in a centrifuge (Kendro, Germany) at 900 rpm and subsequently flash-frozen in liquid N2. The tip with the cell pellet is cut off and inserted into the prepared counting tube (Roth, Germany). The remainder of the pointed-bottom tube with the remaining supernatant is also inserted into a counting tube. The measurement is made in a γ-counter for 1 minute/sample.
The evaluation of the samples is carried out after calculating the specific bond in comparison to untreated cells, after the unspecific bond (excess unlabeled ligand, 1 mmol) is removed by means of GraphPad Prism (GraphPad Software Inc., USA).

Structure (SMILES): COc1cccc2c3c([nH]c12)CC[C@](NC(=O)Cc1ccc(Cl)cc1)(C(=O)N1CCC[C@H]1C(N)=O)C3 [Compound 189a, (2S)-1-[[(3R)-3-[[(4-Chlorophenyl)acetyl]-amino]-2,3,4,9-tetrahydro-8-methoxy-1H-carbazol-3-yl]carbonyl]-2-pyrrolidine-carboxamide]
- IC50 (hGnRH-Receptor): 700 nM
- IC50 (GnRH receptor [1]): 500 nM

Structure (SMILES): CC[C@H](C)[C@H](NC(=O)OCc1ccccc1)C(=O)N[C@]1(C(=O)N2C3CCCCC3C[C@H]2C(N)=O)CCc2[nH]c3ccccc3c2C1 (stereo partly drawn) [Compound 190a, Phenylmethyl [(1S,2S)-1-[[[(3R)-3-[[(2S)-2-(aminocarbonyl)octahydro-1H-indol-1-yl]-carbonyl]-2,3,4,9-tetrahydro-1H-carbazol-3-yl]-amino]carbonyl]-2-methylbutyl]carbamate]
- IC50 (hGnRH-Receptor): 2000 nM
- IC50 (GnRH receptor [1]): 500 nM

Structure (SMILES): CC[C@H](C)[C@H](NC(=O)OCc1ccccc1)C(=O)N[C@]1(C(=O)N[C@H](C(=O)NC)C(C)C)CCc2[nH]c3ccccc3c2C1 [Compound 222a, Phenylmethyl [(1S,2S)-2-methyl-1-[[[(3R)-2,3,4,9-tetrahydro-3-[[[(1S)-2-methyl-1-[(methylamino)carbonyl]-propyl]amino]carbonyl]-1H-carbazol-3-yl]amino]carbonyl]-butyl]carbamate]
- IC50 (hGnRH-Receptor): 2500 nM
- IC50 (GnRH receptor [1]): 3000 nM

Structure (SMILES): CC(C)[C@H](NC(=O)[C@@]1(NCCCCCCc2ccccc2)CCc2[nH]c3ccccc3c2C1)C(N)=O [Compound 234a, (3R)-N-[(1S)-1-(Aminocarbonyl)-2-methylpropyl]-2,3,4,9-tetrahydro-3-[(6-phenylhexyl)amino]-1H-carbazole-3-carboxamide]
- IC50 (hGnRH-Receptor): 9000 nM
- IC50 (GnRH receptor [1]): 1000 nM

Structure (SMILES): CC[C@H](C)[C@H](NC(=O)OCc1ccccc1)C(=O)N[C@]1(C(=O)N[C@H](CO)C(C)C)CCc2[nH]c3ccccc3c2C1 [Compound 267a, Phenylmethyl [(1S,2S)-1-[[[(3R)-3-[[[(1S)-1-(hydroxymethyl)-2-methylpropyl]amino]-carbonyl]-2,3,4,9-tetrahydro-1H-carbazol-3-yl]amino]carbonyl]-2-methylbutyl]carbamate]
- IC50 (hGnRH-Receptor): 400 nM
- IC50 (GnRH receptor [1]): 500 nM

Structure (SMILES): c1ccc(CCCC2(CNCc3ccccn3)CCc3[nH]c4ccccc4c3C2)cc1 (centres unmarked) [Compound 279, 2,3,4,9-Tetrahydro-3-(3-phenylpropyl)-N-(2-pyridinylmethyl)-1H-carbazole-3-methanamine]
- IC50 (hGnRH-Receptor): 2000 nM
- IC50 (GnRH receptor [1]): 3000 nM

Structure (SMILES): Clc1cc(Cl)c2[nH]c3c(c2c1)CC(CCCc1ccccc1)(CNCc1ccccn1)CC3 (centres unmarked) [Compound 283, 6,8-dichloro-2,3,4,9-tetrahydro-3-(3-phenylpropyl)-N-(2-pyridinylmethyl)-1H-carbazole-3-methanamine]
- IC50 (hGnRH-Receptor): 1000 nM
- IC50 (GnRH receptor [1]): 3000 nM

Structure (SMILES): CC(C)[C@@H](CO)NCC1(CCCc2ccccc2)CCc2[nH]c3ccccc3c2C1 (stereo partly drawn) [Compound 284, (2S)-3-Methyl-2-[[[2,3,4,9-tetrahydro-3-(3-phenylpropyl)-1H-carbazol-3-yl]methyl]-amino]-1-butanol]
- IC50 (hGnRH-Receptor): 7000 nM
- IC50 (GnRH receptor [1]): 7000 nM

Structure (SMILES): CC[C@H](C)[C@H](NC(=O)OCc1ccccc1)C(=O)N[C@]1(C(=O)N[C@H](C(N)=O)C(C)(C)C)CCc2[nH]c3c(Cl)cc(Cl)cc3c2C1 [Compound 298, Phenylmethyl [(1S,2S)-1-[[[(3R)-3-[[[(1S)-1-(aminocarbonyl)-2,2-dimethylpropyl]amino]carbonyl]-6,8-dichloro-2,3,4,9-tetrahydro-1H-carbazol-3-yl]amino]car-bonyl]-2-methylbutyl]carbamate]
- EC50 (GnRH receptor [2]): 288 nM

Structure (SMILES): CC[C@H](C)[C@H](NC(=O)[C@@]1(NC(=O)[C@H](CCc2ccc(O)cc2)NC(=O)OCc2ccccc2)CCc2[nH]c3c(Cl)cc(Cl)cc3c2C1)C(N)=O [Compound 303, Phenylmethyl [(1S)-1-[[[(3R)-3-[[[(1S,2S)-1-(aminocarbonyl)-2-methylbutyl]amino]carbonyl]-6,8-dichloro-2,3,4,9-tetrahydro-1H-carbazol-3-yl]amino]car-bonyl]-3-(4-hydroxyphenyl)-propyl]carbamate]
- EC50 (GnRH receptor [2]): 21 nM

Structure (SMILES): CC[C@H](C)[C@H](NC(=O)[C@@]1(NC(=O)[C@H](CC(C)C)NC(=O)OCc2ccccc2)CCc2[nH]c3c(Cl)cc(Cl)cc3c2C1)C(N)=O [Compound 305, Phenylmethyl [(1S)-1-[[[(3R)-3-[[[(1S,2S)-1-(aminocarbonyl)-2-methylbutyl]amino]carbonyl]-6,8-dichloro-2-3,4,9-tetrahydro-1H-carbazol-3-yl]amino]car-bonyl]-3-methylbutyl]carbamate]
- EC50 (GnRH receptor [2]): 56 nM

Structure (SMILES): CC(C)C[C@H](NC(=O)[C@@]1(NC(=O)[C@H](CC(C)C)NC(=O)OCc2ccccc2)CCc2[nH]c3c(Cl)cc(Cl)cc3c2C1)C(N)=O [Compound 306, Phenylmethyl [(1S)-1-[[[(3R)-3-[[[(1S)-1-(aminocarbonyl)-3-methylbutyl]amino]carbonyl]-6,8-dichloro-2,3,4,9-tetrahydro-1H-carbazol-3-yl]amino]car-bonyl]-3-methylbutyl]carbamate]
- EC50 (GnRH receptor [2]): 77 nM
